Laboratory results as given in PubChem BioAssay (NCI).
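Method: 48-hour compound exposure of cells in 96-well plates, five concentrations, linear interpolation of endpoints. GI50 is the concentration that inhibits growth by half. The concentration for full growth arrest is given as TGI.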

Experiments:
Test in all cases: NCI-60 cell line screen, 48 h
[1] = tested on: DU-145 prostate
[2] = tested on: SNB-19 CNS
[3] = tested on: LOX IMVI melanoma
[4] = tested on: OVCAR-8 ovarian
[5] = tested on: HCT-116 colon
[6] = tested on: NCI-H460 lung
[7] = tested on: KM12 colon
[8] = tested on: SN12C renal
[9] = tested on: SK-MEL-5 melanoma
[10] = tested on: SK-MEL-28 melanoma
[11] = tested on: SF-539 CNS
[12] = tested on: UO-31 renal
[13] = tested on: RPMI-8226 leukemia
[14] = tested on: IGROV1 ovarian
[15] = tested on: U251 CNS
[16] = tested on: CCRF-CEM leukemia
[17] = tested on: HL-60(TB) leukemia
[18] = tested on: MDA-MB-435
[19] = tested on: HCC-2998 colon
[20] = tested on: HOP-62 NSCLC
[21] = tested on: OVCAR-4 ovarian
[22] = tested on: HOP-92 NSCLC
[23] = tested on: EKVX NSCLC
[24] = tested on: T-47D breast
[25] = tested on: M14 melanoma
[26] = tested on: NCI-H226 lung
[27] = tested on: MDA-MB-231 breast
[28] = tested on: HT29 colon
[29] = tested on: HS 578T breast
[30] = tested on: HCT-15 colon
[31] = tested on: TK-10 renal
[32] = tested on: PC-3 prostate
[33] = tested on: BT-549 breast
[34] = tested on: NCI/ADR-RES ovarian
[35] = tested on: SK-OV-3 ovarian
[36] = tested on: K-562 leukemia
[37] = tested on: UACC-62 melanoma
[38] = tested on: MALME-3M melanoma
[39] = tested on: ACHN renal
[40] = tested on: RXF 393 renal
[41] = tested on: OVCAR-3 ovarian
[42] = tested on: SNB-75 CNS
[43] = tested on: A549 NSCLC
[44] = tested on: NCI-H522 lung
[45] = tested on: MCF7 breast
[46] = tested on: CAKI-1 renal
[47] = tested on: NCI-H23 lung
[48] = tested on: SK-MEL-2 melanoma
[49] = tested on: SW-620 colon
[50] = tested on: OVCAR-5 ovarian
[51] = tested on: A498 renal
[52] = tested on: UACC-257 melanoma
[53] = tested on: COLO 205 colon
[54] = tested on: SF-295 CNS
[55] = tested on: SF-268 CNS
[56] = tested on: 786-0 renal

## C=CCC(N[C@H](CO)c1ccccc1)c1cn(Cc2ccccc2Cl)c(=O)n(Cc2ccccc2Cl)c1=O (stereo partly specified)
[1]
  GI50: 23.5 µM
  TGI: 95.5 µM
[2]
  GI50: 35.7 µM
  TGI: > 100 µM
[3]
  GI50: 6.27 µM
  TGI: 19 µM
[4]
  GI50: 15.2 µM
  TGI: > 100 µM
[5]
  GI50: 6.44 µM
  TGI: 20.8 µM
[6]
  GI50: 18.3 µM
  TGI: > 100 µM
[7]
  GI50: 17.5 µM
  TGI: 73.3 µM
[8]
  GI50: 14.6 µM
  TGI: 40.9 µM
[9]
  GI50: 14.6 µM
  TGI: 30.1 µM
[10]
  GI50: 19.7 µM
  TGI: 39.5 µM
[11]
  GI50: 15 µM
  TGI: 32.5 µM
[12]
  GI50: 6.89 µM
  TGI: > 100 µM
[13]
  GI50: 3.73 µM
  TGI: 12.5 µM
[14]
  GI50: 13.5 µM
  TGI: 66.3 µM
[15]
  GI50: 11.2 µM
  TGI: 34 µM
[16]
  GI50: 10.6 µM
  TGI: 42.5 µM
[17]
  GI50: 5.87 µM
  TGI: 34 µM
[18]
  GI50: 15.9 µM
  TGI: 38.6 µM
[19]
  GI50: 10.7 µM
  TGI: 27.3 µM
[20]
  GI50: 12 µM
  TGI: 29.9 µM
[21]
  GI50: 26.6 µM
  TGI: > 100 µM
[22]
  GI50: 3.92 µM
  TGI: 23.1 µM
[23]
  GI50: 16.1 µM
  TGI: 96.4 µM
[24]
  GI50: > 100 µM
  TGI: > 100 µM
[25]
  GI50: 6.19 µM
  TGI: 23.1 µM
[26]
  GI50: 13.7 µM
  TGI: 49.8 µM
[27]
  GI50: 3.74 µM
  TGI: 21.5 µM
[28]
  GI50: 11 µM
  TGI: > 100 µM
[29]
  GI50: 26 µM
  TGI: > 100 µM
[30]
  GI50: 9.27 µM
  TGI: 35.2 µM
[31]
  GI50: 46.6 µM
  TGI: > 100 µM
[32]
  GI50: 4.03 µM
  TGI: 26.7 µM
[33]
  TGI: 7.01 µM
[34]
  GI50: 9.26 µM
  TGI: > 100 µM
[35]
  GI50: 63.8 µM
  TGI: > 100 µM
[36]
  GI50: 6.78 µM
  TGI: 40.7 µM
[37]
  GI50: 7.64 µM
  TGI: 27.1 µM
[38]
  GI50: 34.5 µM
  TGI: 81 µM
[39]
  GI50: 4.78 µM
  TGI: 39 µM
[40]
  GI50: 8.48 µM
  TGI: 23.6 µM
[41]
  GI50: 8.8 µM
  TGI: 43.8 µM
[42]
  GI50: 16.6 µM
  TGI: 64.8 µM
[43]
  GI50: 15.3 µM
  TGI: > 100 µM
[44]
  GI50: 14.3 µM
  TGI: 89.9 µM
[45]
  GI50: 16.4 µM
  TGI: 68.7 µM
[46]
  GI50: 4.46 µM
  TGI: 32.2 µM
[47]
  GI50: 19.5 µM
  TGI: 62.1 µM
[48]
  GI50: 18.9 µM
  TGI: 57.5 µM
[49]
  GI50: 24.3 µM
  TGI: > 100 µM
[50]
  GI50: 25.6 µM
  TGI: > 100 µM
[51]
  GI50: 11 µM
  TGI: 39.1 µM
[52]
  GI50: 23.3 µM
  TGI: 53.4 µM
[53]
  GI50: 14.7 µM
  TGI: 86.8 µM
[54]
  GI50: 8.13 µM
  TGI: 48 µM
[55]
  GI50: 18.6 µM
  TGI: > 100 µM
[56]
  GI50: 12.7 µM
  TGI: 64.1 µM
